The text below walks through data of patent US20190053490A1, “USE OF ACTIVE SUBSTANCES FOR CONTROLLING VIRUS INFECTION IN PLANTS” (Bayer CropScience Aktiengesellschaft, priority 2016, published 2019).

The subject of assay [1] is Pseudomonas syringae pv tabaci. The note with it: cited from earlier work.
Assay [2] deals with tobacco mosaic virus (TMV). The following applies: cited from earlier work.
The test system of assay [3] is SA-inducible pathogenesis-related (PR)-1 proteins. The note with it: infiltrated leaves; cited from earlier work.
In assay [4] the test system is ABA-dependent gene expression and ABA-induced stomatal closure. The note with it: in vivo; cited from earlier work.
Assay [5] has as its system Turnip mosaic virus (TuMV-GFP). Nature of the assay: Antiviral efficacy against TuMV-GFP on Arabidopsis. The note with it: 100 or 200 ppm sprayed 3 days before infection. The assay is classed as in vivo. On the procedure: The Turnip mosaic virus (TuMV) belongs to the Potyviridae, the largest family of known plant viruses. This virus infects a wide range of plants, in particular Brassicaceae. TuMV genome consists of a positive-sense single-stranded RNA molecule (+ssRNA). The antiviral efficacy of DFMP was tested with a fluorescently-tagged potyvirus (TuMV-GFP) in order to specifically pinpoint when and where the effect of the molecules is induced during virus primary infection, as well as its local or systemic spread.
Arabidopsis plants were sprayed with 100 or 200 ppm of DFMP 3 days before infecting the plants with the TuMV-GFP virus. Virus titers were measured by qPCR and/or virus protein accumulation on Western blot analyses and by counting the number of primary infection foci under UV light in the case of the TuMV-GFP.

The subject of assay [6] is Turnip crinkle virus (TCV). Nature of the assay: Antiviral efficacy against TCV. It counts as in vivo. The note with it: 100 ppm. The source says:
(§1) Similar results were obtained with DFPM with the unrelated viruses Turnip crinkle virus (TCV,) and Cauliflower mosaic virus (CaMV). The TCV belongs to the Tombusviridae family and infects various types of plant species including the common plant models A. thaliana and N. benthamiana. Its genome is another example of +strand RNA virus. The CaMV belongs to the Caulimoviridae family. It infects mostly Brassicaceae such as turnip and cabbage, but is also able to infect A. thaliana. CaMV consists of a double-stranded DNA molecule.

Assay [7] deals with RNAi pathway (SUL transcript, SUL protein, SUL siRNAs) in SUC-SUL Arabidopsis plants. Nature of the assay: Molecular confirmation in four-week-old SUC-SUL Arabidopsis plants. It counts as in vivo. The following applies: 200 ppm spray, seven days after treatment. The text has this:
The enhancing effect of DFPM on the RNAi machinery has been validated at the phenotypic and molecular levels. Four-week-old SUC-SUL Arabidopsis plants at rosette stage were sprayed with DFPM at 200 ppm. […] The plant aerial tissues were collected and analyzed molecularly using state-of-the-art methodologies. […] Furthermore, these effects were associated with an over-accumulation of both SUL 21-nt and 24-nt long siRNAs derived from the transgenic SUL.

Assay [8] concerns Cauliflower mosaic virus (CaMV). Nature of the assay: Antiviral efficacy against CaMV. It counts as in vivo. The note with it: 100 ppm.
Text: as §1

The test system of assay [9] is Bean pod mottle virus (BPMV-GFP). The assay can be described thus: Antiviral efficacy against BPMV-GFP on soybean plants. It counts as in vivo. The note with it: seven days-post-infection. On the procedure:
The Bean pod mottle virus (BPMV) is a plant pathogenic virus of the family Comoviridae. This virus infects legumes and more particularly soybean. BPMV genome consists of a bipartite positive-sense single-stranded RNA molecule (+ssRNA). The antiviral efficacy of silencing enhancers was tested with a fluorescently-tagged comoviruss (BPMV-GFP) in order to specifically pinpoint when and where the effect of the molecules is induced during virus primary infection, local or systemic spread.
Soybean plants were sprayed with 100 or 200 ppm of DFPM and emulsifiable concentrate (EC) Premix one day before to infect the plants with the BPMV-GFP virus. Twelve replicates were used for each condition.

The subject of assay [10] is RNA silencing pathway (SULPHUR transcript) in SUC-SUL Arabidopsis reporter plants. The assay can be described thus: SUC-SUL Arabidopsis reporter plants, percentage of chlorosis (seedlings). The note with it: 300 ppm spray, seedlings five days post-germination, assessed 14 days after treatment. It counts as in vivo, A. thaliana. The text has this: The plants' RNA silencing pathway can be easily monitored with certain artificially-created reporter plants called the “SUC-SUL Arabidopsis reporter plants” (Dunoyer et al., Nat. Genet. 37, 1356-1360, 2005). The SUC-SUL Arabidopsis reporter plants are transgenic plants expressing an inverted-repeat (IR) double-stranded RNA designed to target the SULPHUR (SUL) transcript in the vasculature under the control of the SUC2 promoter (Truernit et al., Planta 196(3), 564-570, 1995). Once expressed, the dsRNA is processed into small interfering RNAs directing non-cell autonomous post-transcriptional gene silencing of the SULPHUR transcript, in turn causing vein-centered chlorosis. Since the observed chlorosis results from the silencing of the SULPHUR transcript, an expansion of the chlorosis, observable directly on the plants, is correlated with an intensification of the RNA silencing pathway at the molecular level. […] The effects of the treatments on the SUC-SUL reporter plants were assessed 14 days after treatment under trans-illumination and digitally recorded with a stereo-microscope by measuring the surface and intensity of the chlorotic zone (percentage of chlorosis). […]

The test system of assay [11] is PHYTOALEXIN DEFICIENT4 (PAD4) and ENHANCED DISEASE SUSCEPTIBILITY1 (EDS1). The following applies: in vivo; cited from earlier work.
Where [12] appears, read: 100 ppm sprayed one day before infection.
[13] abbreviates: 200 ppm sprayed one day before infection.

As to `COC(=O)N(OC)c1ccccc1COc1ccn(-c2ccc(Cl)cc2)n1` [Pyraclostrobin], in assay [1], the “resistance of tobacco against infection by Pseudomonas syringae pv tabaci” value is given as “enhance the resistance”. The “TMV resistance in NahG transgenic tobacco plants” value in assay [2] (NahG transgenic tobacco unable to accumulate salicylic acid) is “able to enhance TMV resistance”. Moreover, the “resistance of tobacco against infection by TMV” value in assay [2] (tobacco) is “enhance the resistance”. Besides, the “accumulation of SA-inducible PR-1 proteins” value in assay [3] is given as “did not cause the accumulation”.

Consider `S=C(c1ccc(-c2ccc(Cl)c(Cl)c2)o1)N1CCCCC1` [DFPM, [5-(3,4-Dichlorophenyl)Furan-2-yl]-Piperidin-1-ylMethanethione], for which, in assay [4], the “ABA-dependent gene expression in plant” value was “rapidly downregulates” and the ABA-induced stomatal closure entry was “inhibits”. Further, the “virus accumulation on inoculated leaves (infection foci, FIG. 2)” value in [5] (five days post-infection) is “strong reduction”. Also, in [5] (five days-post-infection), the “accumulation of virus titers” value was “clear reduction”. Moreover, the “virus accumulation on systemic tissues (TuMV-derived HcPro mRNA levels, FIG. 3)” value in assay [5] (six days post-infection) is listed as “strong reduction”. Also, the “virus accumulation on inoculated leaves and systemic tissues (TCV-derived P38 mRNA)” value in [6] is given as “strong reduction”. Moreover, in assay [7] (aerial tissues), the “SUL 21-nt and 24-nt long siRNAs” value is reported as “over-accumulation”; the “SUL protein levels (Western blot)” value is on record as “reductions in SUL protein levels”; the “SUL transcript levels (real-time qRT-PCR, FIG. 1)” value is listed as “reductions in SUL transcript levels”. Also, in assay [7] (vs DMSO only), the “RNAi-dependent vein-centered chlorotic phenotype” value is reported as “clear expansion”. Moreover, in [8], the “virus accumulation on inoculated leaves and systemic tissues (CaMV-derived P6 mRNA)” value is given as “strong reduction”. Moreover, in assay [9] (100 or 200 ppm), the “BPMV fluorescence on soybean” value is on record as “clear reduction” and the “number of plants showing BPMV symptoms” value was “clear reduction”. Moreover, in [9] (setting [12]), the “Average of Percentage of BPMV fluorescence” value turned out to be 31% and the “Percentage of plants showing BPMV symptoms” value was found to be 55%. In assay [9] (setting [13]), the “Average of Percentage of BPMV fluorescence” value is recorded as 8% and the “Percentage of plants showing BPMV symptoms” value came to 10%. Also, in assay [10], the percentage of chlorosis result was “significant increase”. Moreover, the “expression of plant defense-related genes including PAD4 and EDS1” value in [11] is reported as “stimulates”.
